In ChEMBL document CHEMBL1201862, “PubChem BioAssay data set” (2004):
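A five-concentration, 48-hour dose response in 96-well plates underlies each endpoint, interpolated linearly between surrounding concentrations. GI50: concentration for 50% inhibition of growth.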 Calls of active or inactive are those of the source. No stated cut-off is given here; in the data, active = GI50 up to about 1.1 µM and inactive = higher.

Legend:
Test in all cases: growth of human tumour cells (NCI), 48 h
KM-20L2 = tested on: KM-20L2
HOP-18 = tested on: HOP-18
DMS-273 = tested on: DMS-273
DMS-114 = tested on: DMS-114
LXFL 529 = tested on: LXFL 529
M19-MEL = tested on: M19-MEL
SNB-78 = tested on: SNB-78
DLD-1 = tested on: DLD-1
RXF 631 = tested on: RXF 631

| SMILES | GI50 (KM-20L2) | GI50 (HOP-18) | GI50 (DMS-273) | GI50 (DMS-114) | GI50 (LXFL 529) | GI50 (M19-MEL) | GI50 (SNB-78) | GI50 (DLD-1) | GI50 (RXF 631) |
| --- | --- | --- | --- | --- | --- | --- | --- | --- | --- |
| CC1(C)OC(=O)C(=C2CCC(C(=O)Nc3cccc(C(F)(F)F)c3)N2)C(=O)O1 (configuration not stated) | 68.4 µM (inactive) | > 100 µM (inactive) | > 100 µM (inactive) | 37.4 µM (inactive) | 39.6 µM (inactive) | 60.8 µM (inactive) | 87.7 µM (inactive) | > 100 µM (inactive) |  |
| Cc1cc(N(CCC#N)S(C)(=O)=O)ccc1C=O | > 100 µM (inactive) | > 100 µM (inactive) | > 100 µM (inactive) | > 100 µM (inactive) | > 100 µM (inactive) |  | > 100 µM (inactive) | > 100 µM (inactive) |  |
| N#CCCN(CCC#N)c1ccc(/C=N\c2ccc(F)cc2)cc1 | 0.152 µM (active) | > 100 µM (inactive) | 4.61 µM (inactive) | 13.8 µM (inactive) | 0.121 µM (active) | 1.63 µM (inactive) | > 100 µM (inactive) | 0.347 µM (active) | > 45.8 µM (inactive) |
| COc1ccc(CC(C)N)cc1 (configuration not stated) [PARA-METHOXYAMPHETAMINE] | > 100 µM (inactive) | > 100 µM (inactive) | > 100 µM (inactive) | > 100 µM (inactive) | > 100 µM (inactive) |  | > 100 µM (inactive) | > 100 µM (inactive) | > 100 µM (inactive) |
| CCCC/C=C/C=C/C=C/CCCCCCCC(=O)OCC(COC(=O)CCCCCCC/C=C/C1C=CC(CCCC)C(C(=O)O)C1C(=O)O)OC(=O)CCCCCCC/C=C/C=C/C=C/CCCC.OCCNCO (configuration not stated) | 20.9 µM (inactive) | 17.2 µM (inactive) | 16.3 µM (inactive) | 10.9 µM (inactive) | 17.8 µM (inactive) | 17.5 µM (inactive) |  | 20 µM (inactive) |  |
| COC(=O)C(=O)C(C#N)c1ccc(CC#N)cc1 (configuration not stated) | > 100 µM (inactive) |  | > 100 µM (inactive) |  | > 100 µM (inactive) | > 100 µM (inactive) | > 100 µM (inactive) | > 100 µM (inactive) |  |
| CCOc1ccc(/N=C/c2ccnc3ccccc23)cc1 | 43.7 µM (inactive) | > 100 µM (inactive) | 28.1 µM (inactive) | 17.3 µM (inactive) | 16.2 µM (inactive) | > 71.1 µM (inactive) | > 60.1 µM (inactive) | 4.57 µM (inactive) |  |
| CCC(=O)Nc1nc2c(ncn2C2OC(COC(=O)CC)C(OC(=O)CC)C2OC(=O)CC)c(=O)[nH]1 (configuration not stated) | > 100 µM (inactive) |  | > 100 µM (inactive) |  | > 100 µM (inactive) | > 100 µM (inactive) | > 100 µM (inactive) |  |  |
| CCN(CC)c1ccc(C(=C2C=CC(=[N+](CC)CC)C=C2)c2ccccc2)cc1 | 0.0302 µM (active) |  | 0.0304 µM (active) | 0.0156 µM (active) | 0.0225 µM (active) | 0.0379 µM (active) | 0.044 µM (active) | 0.0274 µM (active) |  |
| CS(=O)(=O)N(CCC#N)c1ccc(/C=C2\N=C(c3ccccc3Cl)OC2=O)cc1 | > 100 µM (inactive) |  | > 100 µM (inactive) | > 100 µM (inactive) | > 100 µM (inactive) | > 100 µM (inactive) | > 100 µM (inactive) | > 100 µM (inactive) |  |
| CCC1(O)C(=O)OCc2c1cc1n(c2=O)Cc2cc3ccc(C=O)cc3nc2-1 (configuration not stated) | 5.68 µM (inactive) | 3.47 µM (inactive) | 0.484 µM (active) | 0.607 µM (active) | 12.8 µM (inactive) | 2.89 µM (inactive) | 19.9 µM (inactive) | 12.4 µM (inactive) | 2.38 µM (inactive) |
| COc1ccc2nc3ccccc3c(NCCN(C)CCCl)c2c1 | 0.438 µM (active) | 2.06 µM (inactive) | 0.412 µM (active) | 0.752 µM (active) | 0.393 µM (active) | 0.906 µM (active) | 0.902 µM (active) | 0.524 µM (active) |  |
| COc1ccc(/C=N/N=C(\N)NO)cc1F | 9.02 µM (inactive) | 13.8 µM (inactive) | 17.5 µM (inactive) |  | 11.6 µM (inactive) | 21.6 µM (inactive) | 97.3 µM (inactive) | 53.7 µM (inactive) | 14.5 µM (inactive) |
| C=C1COC(O)(C2OCOC(C3CC(=O)NC(=O)C3)C2O)C1C (configuration not stated) | 0.00281 µM (active) | 0.00357 µM (active) | 0.00417 µM (active) | 0.00319 µM (active) | 0.00222 µM (active) | 0.00156 µM (active) | 0.00718 µM (active) | 0.00416 µM (active) | 0.0037 µM (active) |
| C=C(c1nc2ccc(Cl)cc2[nH]c1=O)C(O)c1ccc(C(O)C(=O)c2nc3ccc(Cl)cc3[nH]c2=O)cc1 (configuration not stated) | 62.4 µM (inactive) |  | > 100 µM (inactive) | 35.4 µM (inactive) | 81.1 µM (inactive) | > 100 µM (inactive) | > 100 µM (inactive) | > 100 µM (inactive) | > 100 µM (inactive) |
| O=P(c1ccccc1)(c1ccccc1)C1CC=C2CCCCCC2C1 (configuration not stated) | > 10 µM (inactive) | 19.2 µM (inactive) | 27.4 µM (inactive) | 24.5 µM (inactive) | 21.4 µM (inactive) | 36 µM (inactive) | 40.2 µM (inactive) |  | 27.2 µM (inactive) |
